Measurements from patent US4497812A, “2-Amino-5-aminomethyl-2-oxazolines, compositions and use” (Societe Cortial, S.A., priority 1982, dated 1985).
Where two headings read alike, the source gives them in different places.

Assays:
[1] = tested on: right auricle of a guinea pig beating spontaneously; experiment: antihistaminic activity antiH2 in vitro, histamine-induced chronotropic effect; type: cell-based; details: for intrinsic chronotropic effect / inhibition at 100 µg/mL: 100 microg/ml
Experimental: Antihistaminic activity antiH2 was determined in vitro on the right auricle of a guinea pig beating spontaneously.

[2] = in vivo; details: mouse, mice, read-out: Percentage of mortality
Experimental: The toxicity was determined in mice for various ways of administraion.

[3] = tested on: rats; experiment: antiallergic activity, cutaneous passive anaphylaxis test; type: in vivo
Experimental: The antiallergic activity was determined in rats in the cutaneous passive anaphylaxis test. The animals sensitized by an intradermic injection of IgE immediately received, after administration of the product to be tested, an intravenous injection of ovalbumin and Evans blue. The products of Examples 3 and 4 caused, at 10 mg/kg, 53 and 60% respectively inhibition of the Evans blue spot.

[4] = tested on: right auricle of a guinea pig stimulated electrically; experiment: positive inotropic activity in vitro; type: cell-based; details: Cavia porcellus; 100 microg/ml; read-out: increase of the auricle contractile force
Experimental: The positive inotropic activity was determined in vitro on the right auricle of a guinea pig stimulated electrically.

[5] = tested on: rats; experiment: diuretic activity, sodium excretion; type: in vivo; details: 20 mg/kg per os
Experimental: The diuretic activity was determined in rats subjected to a hydric regimen and evaluated by the ratio of sodium excreted in the treated animals to the sodium excreted in control animals. The products of Examples 3 and 7 multiplied the sodium excretion by 4.2 and 4.9 respectively at a dose of 20 mg/kg per os.

[6] = tested on: mice; experiment: hypocholesterolemic activity, regimen rich in cholesterol and cholic acid; type: in vivo; details: 400 mg/kg per os
Experimental: The hypocholesterolemic activity was determined in mice subjected to a regimen rich in cholesterol and cholic acid for 7 days. After administration per os of the production of Example 6 in a dose of 400 mg/kg, a 21% reduction of cholesterolemia was noted on the 6th and 7th days. This drop in cholesterolemia was accompanied by a 20% reduction of the […] fraction, the HDL/cholesterol ratio being equal to 1.01.

[7] = tested on: guinea pig ileum; experiment: contractions induced by serotinin in vitro; type: cell-based; details: Cavia porcellus; 25 microg/ml
[8] = tested on: guinea pig ileum; experiment: antihistaminic activity antiH1 in vitro, contractions induced by histamine; type: cell-based; details: Cavia porcellus
Experimental: The antihistaminic activity antiH1 was determined in vitro on guinea pig ileum.

[9] = tested on: rats; experiment: carrageenan edema test; type: in vivo; details: 100 mg/kg per os, after 4 hours
Source text: The antiinflammatory activity was brought out in the carrageenan edema test in rats.

[10] = tested on: rats; experiment: stress ulcer test; type: in vivo; details: 25 mg/kg per os
Source text: The antiulcerigenic activity was shown in the stress ulcer test.

[11] = ulcerigenic effect; type: in vivo; details: 200 mg/kg per os
[12] = tested on: spontaneously hypertensive rat; experiment: spontaneously hypertensive rat, systolic pressure; type: in vivo; details: orally 100 mg/kg
Experimental: In the model of the spontaneously hypertensive rat, the product of Example 13, administered orally in a dose of 100 mg/kg, caused a drop in systolic pressure of 14 and 15% respectively after two and four hours. The product of Example 14, administered in a dose of 100 mg/kg under the same conditions, caused a reduction of 21% of the systolic pressure after six hours.

[13] = Cavia porcellus, 5 microg/ml of histamine
[14] = ip, intraperitoneally 200 mg/kg
[15] = ip, intraperitoneally 100 mg/kg

Structure (SMILES) | inhibition at 100 µg/mL [1, 13] | mortality [2, 14] | mortality ([2]; po, orally 300 mg/kg) | mortality [2, 15] | further results
CCN(CC)CC1CN=C(N)O1 (stereo not shown) [Example 1, 2-amino-N,N-5-diethylaminomethyl-2-oxazoline] | > 50% | 0% | 0% |  | intrinsic chronotropic effect [1]: without exhibiting intrinsic chronotropic effect; inhibition of the Evans blue spot ([3]; 100 mg/kg per os): 60%; activation at 100 µg/mL [4]: 100%
CCCCN(C)CC1CN=C(N)O1 (stereo not shown) [Example 2, 2-amino-5-(N-butyl-N-methylaminomethyl)-2-oxazoline] | > 50% | 100% | 0% | 0% | intrinsic chronotropic effect [1]: without exhibiting intrinsic chronotropic effect
NC1=NCC(CN2CCCC2)O1 (stereo not shown) [Example 3, 2-amino-5-pyrrolidinomethyl-2-oxazoline] |  | 100% | 0% | 0% | sodium excretion multiplied by (ratio treated to control animals) [5]: 4.2; inhibition of the Evans blue spot ([3]; 10 mg/kg): 53%
NC1=NCC(CN2CCCCC2)O1 (stereo not shown) [Example 4, 2-amino-5-piperidinomethyl-2-oxazoline] |  | 100% | 33% | 0% | mortality ([2]; po, orally 200 mg/kg): 0%; inhibition of the Evans blue spot ([3]; 10 mg/kg): 60%
CC1CCN(CC2CN=C(N)O2)CC1 (stereo not shown) [Example 5, 2-amino-5-(4-methylpiperidinomethyl)-2-oxazoline] |  | 100% | 0% | 0% | 
CCC1CCCCN1CC1CN=C(N)O1 (stereo not shown) [Example 6, 2-amino-5-(2-ethylpiperidinomethyl)-2-oxazoline] | > 50% | 0% | 0% |  | intrinsic chronotropic effect [1]: without exhibiting intrinsic chronotropic effect; HDL/cholesterol ratio [6]: 1.01; reduction of the HDL-VLDL fraction [6]: 20%; reduction of cholesterolemia ([6]; 6th and 7th days): 21%
NC1=NCC(CN2CCOCC2)O1 (stereo not shown) [Example 7, 2-amino-5-morpholinomethyl-2-oxazoline] |  |  | 100% |  | sodium excretion multiplied by (ratio treated to control animals) [5]: 4.9
CN1CCN(CC2CN=C(N)O2)CC1 (stereo not shown) [Example 10, 2-amino-(4-methylpiperazinyl)-5-methyl-2-oxazoline] |  | 0% | 0% |  | 
NC1=NCC(CN2CCN(c3ccccc3)CC2)O1 (stereo not shown) [Example 11] |  |  |  |  | inhibition at 25 µg/mL [7]: 80%; inhibition at 25 µg/mL ([8]; 25 microg/ml): > 80%; inhibition of carrageenan edema [9]: 35%; inhibition of the stress ulcer [10]: 88%; ulcerigenic effect [11]: very slightly ulcerigenic
NC1=NCC(CN2CCC(Cc3ccccc3)CC2)O1 (stereo not shown) [Example 12] |  | 100% | 100% | 0% | mortality ([2]; po, orally 100 mg/kg (footnote 1)): 0%
NC1=NCC(CN2CCN(Cc3ccccc3)CC2)O1 (stereo not shown) [Example 13] | > 50% | 100% | 0% | 0% | inhibition at 100 µg/mL ([8]; 100 microg/ml): > 80%; drop in systolic pressure ([12]; after four hours): 15%; drop in systolic pressure ([12]; after two hours): 14%
C=CCN1CCN(CC2CN=C(N)O2)CC1 (stereo not shown) [Example 14] |  | 0% | 0% |  | inhibition at 50 µg/mL ([1]; Cavia porcellus, 50 microg/ml, 5 microg/ml of histamine): > 50%; reduction of the systolic pressure ([12]; after six hours): 21%
